Three molecules from publication PMC4685510, “A Cell Biologist’s Field Guide to Aurora Kinase Inhibitors” (Frontiers in Oncology, 2015) can be followed below.

Common to all, as to assay: biochemical
Holding throughout (assay type): biochemical

In experiment [1] the target is 363 human kinases (including Aurora A/B/C) (Homo sapiens, UniProt P45984). Particulars: JNK2; for remaining activity at 0.1 µM: 100 nM; for remaining activity at 0.1 µM / remaining activity at 0.5 µM: read-out: % Enzyme Activity (relative to DMSO controls).
Excerpt: (§1) However, the Aurora A/B selectivity ratios derived from our in vitro and in vivo data can be compared to prioritize inhibitors.
Experiment [2] addresses T1, 363 human kinases (including Aurora A/B/C) (Homo sapiens, UniProt Q16832).
T1 sequence (Q16832 22-855): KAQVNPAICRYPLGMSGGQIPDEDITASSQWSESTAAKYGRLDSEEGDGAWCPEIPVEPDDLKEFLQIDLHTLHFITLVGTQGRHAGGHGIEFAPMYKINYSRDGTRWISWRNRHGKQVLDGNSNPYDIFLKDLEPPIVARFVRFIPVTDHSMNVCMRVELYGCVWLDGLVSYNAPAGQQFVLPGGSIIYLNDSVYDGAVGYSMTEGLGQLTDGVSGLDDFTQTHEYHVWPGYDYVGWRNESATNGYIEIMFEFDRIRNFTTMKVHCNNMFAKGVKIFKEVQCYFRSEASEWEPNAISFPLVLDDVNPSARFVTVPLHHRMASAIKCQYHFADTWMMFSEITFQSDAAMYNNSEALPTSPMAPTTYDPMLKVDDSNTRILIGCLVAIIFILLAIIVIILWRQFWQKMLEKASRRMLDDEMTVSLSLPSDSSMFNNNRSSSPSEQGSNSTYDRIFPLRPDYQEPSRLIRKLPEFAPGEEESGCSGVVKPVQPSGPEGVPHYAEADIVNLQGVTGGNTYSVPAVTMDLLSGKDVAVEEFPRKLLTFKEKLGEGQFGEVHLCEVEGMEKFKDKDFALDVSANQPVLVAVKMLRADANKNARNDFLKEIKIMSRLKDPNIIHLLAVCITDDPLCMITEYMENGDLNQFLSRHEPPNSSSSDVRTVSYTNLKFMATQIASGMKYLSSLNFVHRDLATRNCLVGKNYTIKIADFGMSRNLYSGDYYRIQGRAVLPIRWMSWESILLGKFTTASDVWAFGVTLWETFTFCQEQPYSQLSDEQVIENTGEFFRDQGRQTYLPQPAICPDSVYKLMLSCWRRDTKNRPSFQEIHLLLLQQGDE
Particulars: DDR2, [ATP] 5 µM; for remaining activity at 0.1 µM: 100 nM; for remaining activity at 0.1 µM / remaining activity at 0.5 µM: read-out: % Enzyme Activity (relative to DMSO controls).
Excerpt: as §1

Experiment [3] deals with 363 human kinases (including Aurora A/B/C) (Homo sapiens, UniProt Q9HCP0). Conditions: CK1g1, [ATP] 20 µM; for remaining activity at 0.1 µM: 100 nM; for remaining activity at 0.1 µM / remaining activity at 0.5 µM: read-out: % Enzyme Activity (relative to DMSO controls).
Excerpt: as §1
The target of experiment [4] is 363 human kinases (including Aurora A/B/C) (Homo sapiens, UniProt P22612). Particulars: PKAcg; for remaining activity at 0.1 µM: 100 nM; for remaining activity at 0.1 µM / remaining activity at 0.5 µM: read-out: % Enzyme Activity (relative to DMSO controls).
Excerpt: as §1
The target in experiment [5] is 363 human kinases (including Aurora A/B/C) (Homo sapiens, UniProt P29317). Particulars: EPHA2, [ATP] 50 µM; for remaining activity at 0.1 µM: 100 nM; for remaining activity at 0.1 µM / remaining activity at 0.5 µM: read-out: % Enzyme Activity (relative to DMSO controls).
Excerpt: as §1
The target of experiment [6] is 363 human kinases (including Aurora A/B/C) (Homo sapiens, UniProt Q05397). Particulars: FAK/PTK2, [ATP] 50 µM; for remaining activity at 0.1 µM: 100 nM; for remaining activity at 0.1 µM / remaining activity at 0.5 µM: read-out: % Enzyme Activity (relative to DMSO controls).
Excerpt: as §1
In experiment [7] the target is 363 human kinases (including Aurora A/B/C) (Homo sapiens, UniProt P15056). Conditions: BRAF, [ATP] 10 µM; for remaining activity at 0.1 µM: 100 nM; for remaining activity at 0.1 µM / remaining activity at 0.5 µM: read-out: % Enzyme Activity (relative to DMSO controls).
Excerpt: as §1
Experiment [8] addresses 363 human kinases (including Aurora A/B/C) (Homo sapiens, UniProt Q9Y3S1). Particulars: WNK2; for remaining activity at 0.1 µM: 100 nM; for remaining activity at 0.1 µM / remaining activity at 0.5 µM: read-out: % Enzyme Activity (relative to DMSO controls).
Excerpt: as §1
In experiment [9] the target is T2, 363 human kinases (including Aurora A/B/C) (Homo sapiens, UniProt Q9H093).
T2 sequence (Q9H093 1-628): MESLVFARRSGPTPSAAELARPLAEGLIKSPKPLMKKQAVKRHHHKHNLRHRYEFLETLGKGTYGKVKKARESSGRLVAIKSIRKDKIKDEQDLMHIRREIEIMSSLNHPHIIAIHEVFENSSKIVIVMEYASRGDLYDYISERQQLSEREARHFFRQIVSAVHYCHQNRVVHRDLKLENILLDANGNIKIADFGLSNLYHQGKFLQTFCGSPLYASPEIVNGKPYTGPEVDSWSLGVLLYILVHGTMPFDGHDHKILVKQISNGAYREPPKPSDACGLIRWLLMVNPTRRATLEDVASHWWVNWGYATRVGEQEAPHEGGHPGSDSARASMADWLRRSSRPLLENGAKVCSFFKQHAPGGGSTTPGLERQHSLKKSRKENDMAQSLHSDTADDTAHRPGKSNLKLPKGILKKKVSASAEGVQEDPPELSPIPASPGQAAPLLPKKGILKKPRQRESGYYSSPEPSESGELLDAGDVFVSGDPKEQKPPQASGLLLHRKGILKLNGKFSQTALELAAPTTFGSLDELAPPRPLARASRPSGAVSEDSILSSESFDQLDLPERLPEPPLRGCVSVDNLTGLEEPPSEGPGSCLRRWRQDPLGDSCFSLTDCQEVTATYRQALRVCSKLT
Particulars: SNARK/NUAK2; for remaining activity at 0.1 µM: 100 nM; for remaining activity at 0.1 µM / remaining activity at 0.5 µM: read-out: % Enzyme Activity (relative to DMSO controls).
Excerpt: as §1

Each structure is given as a SMILES string.

363 human kinases (including Aurora A/B/C) (Homo sapiens, UniProt P15056), sequence (P15056 whole entry): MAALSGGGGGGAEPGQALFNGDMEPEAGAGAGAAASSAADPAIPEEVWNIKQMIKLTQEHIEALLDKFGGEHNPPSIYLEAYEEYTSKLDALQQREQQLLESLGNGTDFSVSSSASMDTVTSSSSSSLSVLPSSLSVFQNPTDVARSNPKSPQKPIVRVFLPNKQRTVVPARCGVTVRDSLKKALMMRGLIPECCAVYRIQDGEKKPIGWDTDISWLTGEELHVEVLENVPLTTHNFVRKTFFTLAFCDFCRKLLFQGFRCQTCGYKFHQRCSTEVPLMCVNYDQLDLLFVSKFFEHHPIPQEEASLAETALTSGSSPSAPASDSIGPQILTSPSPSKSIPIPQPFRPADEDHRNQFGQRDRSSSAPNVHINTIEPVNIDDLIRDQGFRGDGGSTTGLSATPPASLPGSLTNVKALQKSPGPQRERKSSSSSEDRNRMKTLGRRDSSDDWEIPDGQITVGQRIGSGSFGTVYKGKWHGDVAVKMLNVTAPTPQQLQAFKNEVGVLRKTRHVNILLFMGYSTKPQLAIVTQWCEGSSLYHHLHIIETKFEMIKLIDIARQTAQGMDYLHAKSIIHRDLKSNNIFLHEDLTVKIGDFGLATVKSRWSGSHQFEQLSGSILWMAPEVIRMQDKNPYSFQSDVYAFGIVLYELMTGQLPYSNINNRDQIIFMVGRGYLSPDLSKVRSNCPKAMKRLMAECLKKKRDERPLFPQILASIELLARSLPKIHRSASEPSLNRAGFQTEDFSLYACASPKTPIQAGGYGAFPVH
363 human kinases (including Aurora A/B/C) (Homo sapiens, UniProt Q9Y3S1), sequence (Q9Y3S1 whole entry): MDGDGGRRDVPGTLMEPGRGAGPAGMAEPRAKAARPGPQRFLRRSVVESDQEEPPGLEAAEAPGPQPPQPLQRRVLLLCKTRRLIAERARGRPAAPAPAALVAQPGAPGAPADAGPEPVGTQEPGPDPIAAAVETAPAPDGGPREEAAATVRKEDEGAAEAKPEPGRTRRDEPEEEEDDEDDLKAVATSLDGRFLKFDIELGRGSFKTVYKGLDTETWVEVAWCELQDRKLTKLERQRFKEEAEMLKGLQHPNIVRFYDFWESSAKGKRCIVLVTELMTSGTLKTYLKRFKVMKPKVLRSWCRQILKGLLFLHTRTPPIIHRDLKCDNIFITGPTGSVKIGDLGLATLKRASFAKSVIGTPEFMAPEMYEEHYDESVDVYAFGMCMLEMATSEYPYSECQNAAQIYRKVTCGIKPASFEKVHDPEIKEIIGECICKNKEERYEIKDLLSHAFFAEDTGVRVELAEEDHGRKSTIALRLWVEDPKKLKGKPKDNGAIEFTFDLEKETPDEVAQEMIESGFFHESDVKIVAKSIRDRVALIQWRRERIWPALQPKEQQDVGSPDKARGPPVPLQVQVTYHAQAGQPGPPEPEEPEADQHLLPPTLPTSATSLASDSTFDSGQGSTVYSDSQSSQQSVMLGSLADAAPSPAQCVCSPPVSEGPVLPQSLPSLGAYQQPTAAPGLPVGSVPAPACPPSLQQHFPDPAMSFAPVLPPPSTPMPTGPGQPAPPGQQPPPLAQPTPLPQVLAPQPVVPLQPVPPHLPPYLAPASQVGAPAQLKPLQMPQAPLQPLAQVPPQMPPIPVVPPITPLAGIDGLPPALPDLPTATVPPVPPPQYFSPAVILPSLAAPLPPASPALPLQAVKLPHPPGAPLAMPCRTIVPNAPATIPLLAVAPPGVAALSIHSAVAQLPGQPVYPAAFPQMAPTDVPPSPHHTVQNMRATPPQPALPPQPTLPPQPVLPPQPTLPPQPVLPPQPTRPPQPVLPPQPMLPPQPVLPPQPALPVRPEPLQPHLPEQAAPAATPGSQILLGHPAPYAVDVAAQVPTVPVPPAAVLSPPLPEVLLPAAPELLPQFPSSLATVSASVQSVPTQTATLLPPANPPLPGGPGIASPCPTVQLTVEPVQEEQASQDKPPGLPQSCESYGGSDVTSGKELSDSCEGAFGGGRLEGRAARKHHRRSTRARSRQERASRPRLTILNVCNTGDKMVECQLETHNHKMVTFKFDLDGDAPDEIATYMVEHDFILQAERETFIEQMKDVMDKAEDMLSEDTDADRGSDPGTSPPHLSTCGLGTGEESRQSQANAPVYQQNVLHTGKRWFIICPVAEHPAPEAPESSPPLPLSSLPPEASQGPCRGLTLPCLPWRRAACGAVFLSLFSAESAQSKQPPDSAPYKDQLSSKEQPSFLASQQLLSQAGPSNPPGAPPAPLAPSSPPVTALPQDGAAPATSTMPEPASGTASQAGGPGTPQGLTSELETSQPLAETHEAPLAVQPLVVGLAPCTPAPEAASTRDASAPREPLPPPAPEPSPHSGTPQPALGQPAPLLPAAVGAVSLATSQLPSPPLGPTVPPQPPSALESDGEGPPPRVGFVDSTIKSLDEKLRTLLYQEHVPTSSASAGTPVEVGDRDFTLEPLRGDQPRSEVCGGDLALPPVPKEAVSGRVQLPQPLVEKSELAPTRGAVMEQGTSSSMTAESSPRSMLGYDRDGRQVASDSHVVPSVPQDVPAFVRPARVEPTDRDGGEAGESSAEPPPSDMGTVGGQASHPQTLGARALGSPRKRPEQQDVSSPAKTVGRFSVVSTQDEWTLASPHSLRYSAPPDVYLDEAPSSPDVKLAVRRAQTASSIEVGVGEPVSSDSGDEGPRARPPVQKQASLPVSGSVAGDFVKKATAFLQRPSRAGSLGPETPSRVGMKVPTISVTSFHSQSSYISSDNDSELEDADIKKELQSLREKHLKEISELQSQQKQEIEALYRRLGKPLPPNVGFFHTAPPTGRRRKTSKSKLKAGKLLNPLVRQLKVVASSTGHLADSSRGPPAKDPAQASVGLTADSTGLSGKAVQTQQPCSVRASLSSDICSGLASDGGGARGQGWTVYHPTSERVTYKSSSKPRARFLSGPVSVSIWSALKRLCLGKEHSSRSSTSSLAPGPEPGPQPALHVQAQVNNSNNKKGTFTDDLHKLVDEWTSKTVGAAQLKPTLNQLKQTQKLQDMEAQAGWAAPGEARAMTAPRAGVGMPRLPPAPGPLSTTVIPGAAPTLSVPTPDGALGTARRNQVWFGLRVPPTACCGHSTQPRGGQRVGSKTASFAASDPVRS
363 human kinases (including Aurora A/B/C) (Homo sapiens, UniProt Q9HCP0), sequence (Q9HCP0 whole entry): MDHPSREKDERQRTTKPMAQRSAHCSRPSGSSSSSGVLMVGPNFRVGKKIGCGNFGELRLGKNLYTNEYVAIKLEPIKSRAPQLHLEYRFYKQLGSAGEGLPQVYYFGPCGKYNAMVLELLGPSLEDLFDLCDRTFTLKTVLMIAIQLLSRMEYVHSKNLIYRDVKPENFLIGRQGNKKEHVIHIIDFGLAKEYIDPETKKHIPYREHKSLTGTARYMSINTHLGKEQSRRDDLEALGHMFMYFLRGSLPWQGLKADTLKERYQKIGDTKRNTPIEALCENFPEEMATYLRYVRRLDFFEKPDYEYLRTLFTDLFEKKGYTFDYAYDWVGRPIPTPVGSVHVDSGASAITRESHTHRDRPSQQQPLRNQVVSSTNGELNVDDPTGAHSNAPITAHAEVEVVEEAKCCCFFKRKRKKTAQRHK
363 human kinases (including Aurora A/B/C) (Homo sapiens, UniProt Q05397), sequence (Q05397 whole entry): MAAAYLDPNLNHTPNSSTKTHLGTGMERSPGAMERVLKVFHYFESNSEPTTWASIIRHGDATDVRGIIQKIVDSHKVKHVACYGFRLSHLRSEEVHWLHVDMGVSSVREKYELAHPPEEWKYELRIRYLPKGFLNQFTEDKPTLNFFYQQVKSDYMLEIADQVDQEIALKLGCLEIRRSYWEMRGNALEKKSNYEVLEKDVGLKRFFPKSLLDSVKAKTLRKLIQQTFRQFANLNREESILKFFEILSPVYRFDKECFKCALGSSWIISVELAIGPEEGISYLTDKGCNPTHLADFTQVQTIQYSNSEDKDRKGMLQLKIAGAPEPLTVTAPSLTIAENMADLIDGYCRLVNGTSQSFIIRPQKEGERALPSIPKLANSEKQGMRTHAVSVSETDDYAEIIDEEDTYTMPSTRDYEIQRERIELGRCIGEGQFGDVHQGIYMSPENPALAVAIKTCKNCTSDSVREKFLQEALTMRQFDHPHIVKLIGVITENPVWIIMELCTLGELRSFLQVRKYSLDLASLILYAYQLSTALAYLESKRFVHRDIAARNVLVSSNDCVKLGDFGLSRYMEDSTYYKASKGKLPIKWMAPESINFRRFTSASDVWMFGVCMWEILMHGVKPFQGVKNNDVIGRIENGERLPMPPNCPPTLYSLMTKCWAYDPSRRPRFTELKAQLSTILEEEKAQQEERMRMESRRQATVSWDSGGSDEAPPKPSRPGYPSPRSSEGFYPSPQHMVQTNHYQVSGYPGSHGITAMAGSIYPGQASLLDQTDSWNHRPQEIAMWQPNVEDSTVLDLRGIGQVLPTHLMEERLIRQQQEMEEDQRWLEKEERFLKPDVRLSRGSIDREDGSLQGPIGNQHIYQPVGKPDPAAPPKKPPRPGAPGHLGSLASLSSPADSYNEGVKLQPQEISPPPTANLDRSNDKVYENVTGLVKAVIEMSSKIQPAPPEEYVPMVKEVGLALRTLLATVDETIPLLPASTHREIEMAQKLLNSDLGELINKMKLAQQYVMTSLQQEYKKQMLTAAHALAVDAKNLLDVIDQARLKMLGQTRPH
363 human kinases (including Aurora A/B/C) (Homo sapiens, UniProt P45984), sequence (P45984 whole entry): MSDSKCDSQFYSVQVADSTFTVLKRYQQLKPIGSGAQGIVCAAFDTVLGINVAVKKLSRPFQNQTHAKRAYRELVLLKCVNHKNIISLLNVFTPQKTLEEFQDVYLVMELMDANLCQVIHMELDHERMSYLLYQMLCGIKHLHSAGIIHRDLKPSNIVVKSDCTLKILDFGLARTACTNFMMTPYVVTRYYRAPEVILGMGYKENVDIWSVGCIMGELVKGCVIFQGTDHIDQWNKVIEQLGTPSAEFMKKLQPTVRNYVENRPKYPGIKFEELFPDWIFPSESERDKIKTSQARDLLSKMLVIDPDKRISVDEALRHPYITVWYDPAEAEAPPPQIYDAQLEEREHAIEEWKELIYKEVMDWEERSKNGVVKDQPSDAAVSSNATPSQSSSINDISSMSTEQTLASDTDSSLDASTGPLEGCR

As to `CCn1cc(-c2ccnc3[nH]c(-c4cccc(CN(C)C)c4)cc23)c(-c2ccc(NC(=O)N(C)C)cc2)n1` [GSK1070916], the remaining activity at 0.1 µM in experiment [1] amounted to 94.7%; in experiment [2] it was 76.1%; in experiment [3], 104%; in [4], 102%; in [5], 92.7%; in experiment [6] it was 95.2%. The remaining activity at 0.1 µM was 97.1% in [7], 92.3% in experiment [8] and 88.7% in experiment [9].
Consider `O=C(O)[C@]1(Cc2cccc(Nc3nccs3)n2)CC[C@@H](Oc2cccc(Cl)c2F)CC1` [MK-5108], for which the remaining activity at 0.1 µM was 95.7% in [1]; 21.8% in [2]; 93.2% in experiment [3]; 89.9% in experiment [4]; 13.4% in experiment [5]; 49.8% in [6]. Further, the remaining activity at 0.1 µM in experiment [7] was 103%; in [8] it was 83%; in experiment [9], 104%. For the same molecule, the remaining activity at 0.5 µM in [1] (500 nM) came out at 86.7%; in [2] (500 nM), 9.68%; in experiment [3] (500 nM), 101%; in experiment [4] (500 nM), 103%; in experiment [5] (500 nM), 4.4%; in experiment [6] (500 nM), 15.2%. The remaining activity at 0.5 µM is 94.7% in experiment [7] (500 nM), 33.8% in experiment [8] (500 nM) and 70.8% in experiment [9] (500 nM).
Consider `O=C(c1cccc(Cl)c1F)N1CCN(Cc2cccc(Nc3nccs3)n2)CC1` [MK-8745], for which the “% Enzyme Activity (relative to DMSO controls)” value was 49.53% in experiment [1] (500 nM); 71.49% in experiment [2] (500 nM); 98.16% in experiment [3] (500 nM); 97.46% in experiment [4] (500 nM); 62.60% in [5] (500 nM); 58.97% in experiment [6] (500 nM). Further, the figures for the “% Enzyme Activity (relative to DMSO controls)” value in [7] (500 nM), in experiment [8] (500 nM) and in [9] (500 nM) were 94.88%, 101.71% and 85.75%, respectively. Moreover, the remaining activity at 0.5 µM was determined as 49.7% in [1] (500 nM); 73.2% in [2] (500 nM); 98.7% in [3] (500 nM); 97.7% in [4] (500 nM); 63.4% in experiment [5] (500 nM); 60.2% in [6] (500 nM). Further, the remaining activity at 0.5 µM in [7] (500 nM) was determined as 96.1%; in experiment [8] (500 nM) it was 102%; in [9] (500 nM) it was 88.1%.
